Assay results from ChEMBL document CHEMBL1126789, “Conformational effects on retinoid receptor selectivity. 1. Effect of 9-double bond geometry on retinoid X receptor activity” (J Med Chem, 1993).

Tests used:
[1] = molecular target: T1, Retinoic acid receptor alpha (Homo sapiens, UniProt P10276); assay: Effective concentration against RAR-alpha receptor
T1 sequence (P10276 whole entry): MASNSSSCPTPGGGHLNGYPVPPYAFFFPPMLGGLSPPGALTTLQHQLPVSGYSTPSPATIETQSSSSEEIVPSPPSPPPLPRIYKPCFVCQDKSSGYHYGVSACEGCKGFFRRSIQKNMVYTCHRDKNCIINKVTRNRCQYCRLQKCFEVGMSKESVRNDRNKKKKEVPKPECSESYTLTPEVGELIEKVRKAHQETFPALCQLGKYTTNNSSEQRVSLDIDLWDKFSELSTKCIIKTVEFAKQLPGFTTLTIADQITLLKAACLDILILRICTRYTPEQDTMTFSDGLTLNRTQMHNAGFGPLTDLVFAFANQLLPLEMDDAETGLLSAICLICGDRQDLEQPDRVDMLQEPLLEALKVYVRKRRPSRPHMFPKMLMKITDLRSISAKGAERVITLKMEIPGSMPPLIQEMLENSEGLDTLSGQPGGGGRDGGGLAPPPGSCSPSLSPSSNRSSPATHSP

[2] = molecular target: T2, Retinoic acid receptor gamma (Homo sapiens, UniProt P13631); assay: Effective concentration against RAR-gamma receptor
T2 sequence (P13631 whole entry): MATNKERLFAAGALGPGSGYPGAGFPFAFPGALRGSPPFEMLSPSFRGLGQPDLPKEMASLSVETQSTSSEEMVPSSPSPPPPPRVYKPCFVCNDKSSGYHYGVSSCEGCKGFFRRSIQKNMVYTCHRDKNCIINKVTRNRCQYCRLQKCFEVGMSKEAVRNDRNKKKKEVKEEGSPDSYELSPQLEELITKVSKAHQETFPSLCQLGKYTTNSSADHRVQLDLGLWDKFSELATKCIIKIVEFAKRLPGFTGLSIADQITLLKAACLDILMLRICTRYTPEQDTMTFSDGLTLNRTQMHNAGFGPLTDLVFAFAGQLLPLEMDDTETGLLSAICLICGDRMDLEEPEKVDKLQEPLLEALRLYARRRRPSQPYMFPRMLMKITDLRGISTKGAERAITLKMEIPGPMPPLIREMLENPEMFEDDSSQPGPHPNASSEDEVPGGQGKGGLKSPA

[3] = molecular target: T3, Retinoic acid receptor beta (Homo sapiens, UniProt P10826); assay: Effective concentration against Retinoic acid receptor beta
T3 sequence (P10826 whole entry): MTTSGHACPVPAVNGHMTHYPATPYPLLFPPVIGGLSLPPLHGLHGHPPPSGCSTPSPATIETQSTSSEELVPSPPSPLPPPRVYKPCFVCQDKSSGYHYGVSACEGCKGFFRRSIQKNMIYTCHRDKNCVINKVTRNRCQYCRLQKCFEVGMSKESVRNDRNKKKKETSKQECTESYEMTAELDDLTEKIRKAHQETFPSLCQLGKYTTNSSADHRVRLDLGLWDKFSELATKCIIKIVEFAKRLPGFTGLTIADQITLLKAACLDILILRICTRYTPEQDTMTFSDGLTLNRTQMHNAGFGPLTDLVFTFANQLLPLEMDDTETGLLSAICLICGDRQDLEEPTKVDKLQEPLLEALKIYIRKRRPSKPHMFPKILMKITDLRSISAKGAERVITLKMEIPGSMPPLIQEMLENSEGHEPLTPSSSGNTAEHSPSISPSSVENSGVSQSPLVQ

[4] = molecular target: T4, Retinoic acid receptor RXR-alpha (Homo sapiens, UniProt P19793); assay: Effective concentration against RXR-alpha receptor
T4 sequence (P19793 whole entry): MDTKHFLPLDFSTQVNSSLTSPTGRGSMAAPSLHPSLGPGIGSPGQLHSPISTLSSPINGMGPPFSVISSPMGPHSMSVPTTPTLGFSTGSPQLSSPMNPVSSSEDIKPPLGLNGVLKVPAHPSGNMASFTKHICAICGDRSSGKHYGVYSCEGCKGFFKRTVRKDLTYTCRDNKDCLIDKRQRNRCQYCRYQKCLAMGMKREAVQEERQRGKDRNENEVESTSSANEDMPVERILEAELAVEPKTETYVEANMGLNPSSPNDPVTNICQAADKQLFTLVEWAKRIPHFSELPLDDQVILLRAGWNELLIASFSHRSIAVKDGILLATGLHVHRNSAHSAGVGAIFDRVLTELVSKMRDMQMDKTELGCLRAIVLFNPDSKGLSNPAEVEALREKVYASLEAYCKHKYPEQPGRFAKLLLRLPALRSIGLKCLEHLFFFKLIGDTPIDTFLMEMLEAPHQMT

[5] = molecular target: T3, Retinoic acid receptor beta; assay: Effective concentration against RAR-beta receptor

| EC50 [1] | EC50 [2] | EC50 [3] | EC50 [4] | EC50 [5] | SMILES |
| --- | --- | --- | --- | --- | --- |
| 5000 nM | 2000 nM | 1800 nM |  |  | CC1=C(/C=C/C(C)=C\c2ccc(C(=O)O)cc2)C(C)(C)CCC1 |
| 2300 nM | 1100 nM | 250 nM |  |  | C/C(=C/c1ccc(C(=O)O)cc1)c1ccc2c(c1)C(C)(C)CCS2 |
| 550 nM | 210 nM | 20 nM | 1500 nM |  | CC1=C(CC/C(C)=C/c2ccc(C(=O)O)cc2)C(C)(C)CCC1 |
|  | 2700 nM | 1900 nM | 1100 nM |  | C/C(=C/c1ccc2c(c1)C(C)(C)CCC2(C)C)c1ccc(C(=O)O)cc1 |
| 37 nM | 19 nM | 25 nM |  |  | C/C(=C\c1ccc2c(c1)C(C)(C)CCC2(C)C)c1ccc(C(=O)O)cc1 |
| 2100 nM | 1500 nM | 1500 nM | 2800 nM |  | C/C(=C/c1ccc2c(c1)C(C)(C)CCS2)c1ccc(C(=O)O)cc1 |
|  | 70 nM |  |  |  | C/C(=C/c1ccc(C(=O)O)cc1)c1ccc2c(c1)C1CCC2C1 (stereo not drawn) |
|  |  |  | 2700 nM |  | C/C(=C/c1ccc(C(=O)O)cc1)c1ccc2c(c1)C(C)(C)CCC2(C)C |
| 27 nM | 30 nM | 15 nM |  |  | C/C(=C\c1ccc(C(=O)O)cc1)c1ccc2c(c1)C(C)(C)CCS2 |
|  | 1300 nM | 2000 nM |  |  | CC1=C(CC/C(C)=C\c2ccc(C(=O)O)cc2)C(C)(C)CCC1 |
| 240 nM | 35 nM | 5 nM |  |  | CC1=C(/C=C/C(C)=C/c2ccc(C(=O)O)cc2)C(C)(C)CCC1 |
|  | 550 nM |  |  | 1100 nM | C/C(=C\c1ccc(C(=O)O)cc1)c1ccc2c(c1)C1CCC2C1 (stereo not drawn) |
| 45 nM | 47 nM | 40 nM |  |  | C/C(=C\c1ccc2c(c1)C(C)(C)CCS2)c1ccc(C(=O)O)cc1 |

| SMILES | EC50 [1] | EC50 [2] | EC50 [3] | EC50 [4] | EC50 [5] |
| --- | --- | --- | --- | --- | --- |
| CC1(C)CCC(C)(C)c2cc(-c3ccccc3-c3ccc(C(=O)O)cc3)ccc21 |  | 100 nM | 3200 nM | 2800 nM |  |
